Measured values reported in patent US9616022B1, “Nanodiamond compositions and their use for drug delivery” (THE FLORIDA INTERNATIONAL UNIVERSITY BOARD OF TRUSTEES, priority 2016, dated 2017).

Columns and labels:
[1] = tested on: in-vitro BBB model (HBMVEC and astrocytes); experiment: Drug delivery through in-vitro BBB model; format: in vitro ADME, human; conditions: 40 μg/mL in upper chamber, 30 min to Day 2
Description: Primary human brain microvascular endothelial cells (HBMVEC) and astrocytes were obtained from Sciencell Research Laboratories, Carlsbad, Calif. An in-vitro BBB model was established in trans-well plate as per published protocol.^47,48 HBMVECs were inoculated at the upper side of 0.4-μm pore size PTFE membrane tissue culture inserts (Corning, N.Y.) at initial concentration of 10^4 cells/well. A confluent layer of human astrocytes was grown on the lower side of the membrane. After incubation, integrity of the BBB was measured with transendothelial electrical resistance (TEER) using Millicell ERS microelectrodes (Millipore). […] Afterwards, cell media was collected at different time points (30 mins, 1 hr, Day 1, and Day 2) from the lower chamber and the upper chamber was replenished with fresh media. The drug content of the collected medium was measured through HPLC as mentioned above.

[2] = Solubility in water or PBS; format: physicochemical
Description: In some embodiments, the efficacy of the ND-EFV formulation can be further optimized by making a suspension of the formulation in a liquid. Being hydrophobic molecules, both EFV and ND were insoluble in water or phosphate buffer saline (PBS). In certain embodiments, solvents with ratios of PBS to DMSO (dimethyl sulfoxide) ranging from 1:1 to 1:9 were used to make the ND-EFV formulation soluble in physiological buffer media. In an exemplary embodiment, a PBS:DMSO ratio of approximately 1:9 was used for making a ND-EFV suspension, which was subsequently diluted in preparation to perform biological experiments.

HIV-1 Ba-L = experiment: Anti-HIV-1 efficacy, p24 ELISA in infected primary human macrophages; format: cell-based; conditions: 40 μg/mL, HIV-1 infected macrophages, supernatant Day 0-7
Description: ND-EFV was investigated for anti-HIV-1 efficacy in primary human macrophage. Human peripheral blood mononuclear cells (PBMCs) were isolated from a healthy subject and differentiated into macrophages as previously published.^45 PBMCs were isolated with Ficoll-Hypaque (Pharmacia) gradient and cells were incubated for differentiation for 7 days in the presence of human macrophage colony stimulating factor (MCSF, Sigma) to macrophages. Following incubation, macrophages were infected with HIV-1 1Ba-L (NIH AIDS research and reference reagent program Cat#510) (100 ng/mL) for 24 hrs. On the next day, cells were washed to get rid of any unattached virus and fresh media was added. At the same time, 40 μg/mL of ND-EFV and unformulated EFV was added to these cells in two different setups. The HIV-1 infected macrophages served as a positive control. The […] treated cells were monitored for up to 10 days along with the infected control cells. The cell supernatant was collected at Day 0, 1, 2, 3, 5, and 7 post-treatment. The viral p24 level in the supernatant was measured with p24 ELISA assay (Cat. #0801200, Zeptometrix, USA). The p24 level at different time points provided the level of viral inhibition caused by ND-EFV and EFV. The p24 level at the culture supernatant will be inversely proportional to therapeutic efficacy of ND-EFV.

O=C1Nc2ccc(Cl)cc2[C@@](C#CC2CC2)(C(F)(F)F)O1 [EFV, Efavirenz]
EFV drug release on the CNS side (lower chamber) of the BBB model [1]: very robust drug release | solubility in water or phosphate buffer saline (PBS) [2]: insoluble | time over which HIV-1 replication (p24 level) was controlled (HIV-1 Ba-L): ≤ 5 days
